Assay type in all cases: cell-based
In one experiment the test system is IRES-CMV-luciferase. Nature of the experiment: IRES-CMV-luciferase plasmid counter-assay in 293T cells.
For the next experiment, the system named is SARS-CoV-2 replicon. Nature of the experiment: microbe, parasite or virus in culture. As to conditions: for IC50: Severe acute respiratory syndrome coronavirus 2, HEK-293T, read-out: IC50 upon replicon RNA synthesis (luciferase activity); for Result of compound library screening on replicon: Approved Drug Screening Library, final concentration 20 μM, 24 h treatment. (Replicon systems follow genome replication, usually without infectious particles.)

The next experiment has as its system authentic SARS-CoV-2. The experiment in a line: Authentic SARS-CoV-2 infection assay, viral RNA copies by RT-qPCR. As to conditions: Severe acute respiratory syndrome coronavirus 2, HEK-293T, 24 h, read-out: IC50 on authentic viruses (viral RNA copies). In general terms: Quantitative PCR measures a nucleic acid by following its amplification.
Experiment [1] relates to GFP signal of ps2V plasmid.
The mark [2] stands for this setting: Homo sapiens, HEK-293T, read-out: IC50 on IRES-CMV-luciferase activity, 293T cells, drug added 24 to 30 h after transfection, 24 h treatment.
The mark [3] stands for this setting: 293T cells, drug added 24 to 30 h after transfection, 24 h treatment.

Read-outs that look alike come from different tables or passages of the source.

The results in this text go back to publication PMC7845634 (mBio, 2021).

The term IC50 denotes the concentration that gives 50% inhibition. In the case of `COc1cccc2c1C(=O)c1c(O)c3c(c(O)c1C2=O)C[C@@](O)(C(=O)CO)C[C@@H]3O[C@H]1C[C@H](N)[C@H](O)[C@H](C)O1` [Adriamycin], the values for the concentration for half-maximal inhibition (IC50) in the experiment on IRES-CMV-luciferase (setting [2]), in the experiment on SARS-CoV-2 replicon and in the experiment with authentic SARS-CoV-2 were 17.8 µM, 0.824 ± 0.114 µM and 0.612 ± 0.228 µM, respectively.

With `CCc1cc2c(cc1N1CCC(N3CCOCC3)CC1)C(C)(C)c1[nH]c3cc(C#N)ccc3c1C2=O` [alectinib], the “IC50 on IRES-CMV-luciferase activity” value in the experiment with IRES-CMV-luciferase (setting [3]) is reported as “no statistical significance”. Besides, the 50% inhibitory concentration (IC50) in the experiment with SARS-CoV-2 replicon was 0.564 ± 0.0175 µM; in the experiment with authentic SARS-CoV-2 it was 0.14 ± 0.0913 µM.

As to `C[C@H]1O[C@@H](O[C@H]2[C@@H](O)C[C@H](O[C@H]3[C@@H](O)C[C@H](O[C@H]4CC[C@@]5(C)[C@H](CC[C@@H]6[C@@H]5CC[C@]5(C)[C@@H](C7=CC(=O)OC7)CC[C@]65O)C4)O[C@@H]3C)O[C@@H]2C)C[C@H](O)[C@@H]1O` [digitoxin], the “Result of compound library screening on replicon” value (shortened to “Result”) in the experiment with SARS-CoV-2 replicon is given as “hit”.

Regarding `CCN(CC)C(=S)SSC(=S)N(CC)CC` [disulfiram], in experiment [1], the “Effect on GFP signal” value is “little effect on GFP signal”. The IC50 in the experiment with SARS-CoV-2 replicon came out at 9.32 ± 1.65 µM.

Take `CC[C@H]1CN2CCc3cc(OC)c(OC)cc3[C@@H]2C[C@@H]1C[C@H]1NCCc2cc(OC)c(OC)cc21` [emetine]: the “Effect on GFP signal” value in experiment [1] was “little effect on GFP signal”. For the same molecule, the “Result” value in the experiment on SARS-CoV-2 replicon is listed as “hit”. The IC50 worked out at 0.273 ± 0.0093 µM in the experiment on SARS-CoV-2 replicon and 0.155 ± 0.068 µM in the experiment with authentic SARS-CoV-2.

Consider `Cc1cccc(C)c1OCC(=O)N[C@@H](Cc1ccccc1)[C@@H](O)C[C@H](Cc1ccccc1)NC(=O)[C@H](C(C)C)N1CCCNC1=O` [lopinavir], for which, in experiment [1], the “Effect on GFP signal” value is on record as “little effect on GFP signal”. Moreover, in the experiment on SARS-CoV-2 replicon, the half-maximal inhibitory concentration (IC50) was 6.79 ± 1.09 µM.

In the case of `Cc1ccc(NC(=O)c2ccc(CN3CCN(C)CC3)cc2)cc1Nc1nc(-c2cccnc2)cs1` [masitinib], the IC50 was found to be 8.64 µM with IRES-CMV-luciferase (setting [2]), 0.652 ± 0.0661 µM with SARS-CoV-2 replicon and 0.597 ± 0.341 µM in the experiment on authentic SARS-CoV-2.

As for `O=C1c2c(O)ccc(O)c2C(=O)c2c(NCCNCCO)ccc(NCCNCCO)c21` [mitoxantrone], the IC50 in the experiment with IRES-CMV-luciferase (293T cells, drug added 24 to 30 h after transfection, 24 h treatment, read-out: IC50 on IRES-CMV-luciferase activity) was 26.8 ± 1.2 µM; in the experiment on IRES-CMV-luciferase (setting [2]), 27.8 µM; in the experiment with SARS-CoV-2 replicon it was 0.338 ± 0.235 µM; in the experiment on authentic SARS-CoV-2, 0.133 ± 0.0901 µM.

`C[C@@H]1O[C@@H](O[C@H]2C[C@@H](O)[C@]3(CO)[C@H]4[C@H](O)C[C@]5(C)[C@@H](C6=CC(=O)OC6)CC[C@]5(O)[C@@H]4CC[C@]3(O)C2)[C@H](O)[C@H](O)[C@H]1O` [ouabain]: in the experiment on SARS-CoV-2 replicon, the “Result” value is reported as “hit”.

Consider `CCC(CC)COC(=O)[C@H](C)N[P@](=O)(OC[C@H]1O[C@@](C#N)(c2ccc3c(N)ncnn23)[C@H](O)[C@@H]1O)Oc1ccccc1` [remdesivir], for which the “Effect on GFP signal” value in experiment [1] was “little effect on GFP signal”. Besides, the IC50 in the experiment on SARS-CoV-2 replicon amounted to 12.4 ± 1.08 µM.

With `CC(C)c1nc(CN(C)C(=O)N[C@H](C(=O)N[C@@H](Cc2ccccc2)C[C@H](O)[C@H](Cc2ccccc2)NC(=O)OCc2cncs2)C(C)C)cs1` [ritonavir], the “Effect on GFP signal” value in experiment [1] was “little effect on GFP signal”. Moreover, the IC50 in the experiment with SARS-CoV-2 replicon is 14.8 ± 1.05 µM.

Take `C=CC(=O)Nc1cccc(Nc2nc(Nc3ccc(N4CCN(C(C)=O)CC4)cc3OC)ncc2C(F)(F)F)c1` [rociletinib]: in the experiment with IRES-CMV-luciferase (setting [3]), the “IC50 on IRES-CMV-luciferase activity” value is “no statistical significance”. In addition, the IC50 is 7.32 ± 1.21 µM in the experiment on SARS-CoV-2 replicon and 11.2 ± 1.89 µM in the experiment with authentic SARS-CoV-2.
